Among the data in article PMC8313270 (Microbial Biotechnology, 2021) are Km values, retold here.

SMILES strings stand for the structures.

This test relates to StdA-His. Put plainly: toxoflavin degradation assay, Lineweaver-Burk plot. It is filed as biochemical, Sphingomonas adhaesiva. The settings on record: 50 mM sodium phosphate pH 8.0, 5 mM DTT, 28°C, no metal added.

A word on the Km: it is the substrate concentration at which the rate is half of its maximum.

For `Cn1ncnc2c(=O)n(C)c(=O)nc1-2` [toxoflavin, 1,6‐dimethylpyrimido[5,4‐e]‐1,2,4‐triazine‐5,7(1H,6H) dione], the Km turned out to be 65 µM.
